Measured values taken from US12275734B1, “Pleuromutilin onium salt derivative containing a 3H-imidazo[4,5-c]pyridine side chain, and a preparation method and application thereof” (SHAANXI UNIVERSITY OF SCIENCE AND TECHNOLOGY, priority 2024, dated 2025).
Like-named read-outs stand apart in the source and are kept apart here.

Assays:
Format in all cases: cell-based
HEK293 Cells = test: Cytotoxicity, Cell Counting Kit-8; details: CCK-8, 24 hours incubation; read-out: CC50 HEK293 Cells
Experimental: (§1) Cell Counting Kit-8 was used to evaluate the cytotoxicity of the compounds.
(§2) (4) Cell culture: HepG2, HEK293 and A549 cells were evenly dispersed in culture medium, seeded into 96-well plates, and cultured under appropriate environmental conditions to keep the cells completely attached to the well walls.
(§3) (5) Compound treatment: Add different concentrations of compounds I-8 and I-9 to each well (the concentrations are 0.78, 1.56, 3.13, 6.25, 12.5, 25, 50 and 100 μM, respectively, and perform 6 parallel experiments). Set up a blank control group and a normal control group. After incubation for 24 hours, observe the cell condition, which observed under a microscope.
(§4) (6) CCK-8 solution treatment: Add CCK-8 solution to each well and incubate for 4 hours to allow it to react with the cells.
(§5) (7) Absorbance determination: Use a full-wavelength scanning multifunctional reader, place the 96-well plate in the instrument, oscillate to mix to make the color evenly distributed, and measure the absorbance value at 490 nm.
(§6) (8) Data analysis: Based on the measured absorbance values, the cell survival rate at different concentrations can be calculated. The median cytotoxic concentration was used to evaluate the cytotoxicity of the compound to A549, HEK293 and HepG2 cells.

A549 Cells = test: Cytotoxicity, Cell Counting Kit-8; details: CCK-8, 24 hours incubation; read-out: CC50 A549 Cells
Experimental: as §1, §2, §3, §4, §5, §6

HepG2 Cells = test: Cytotoxicity, Cell Counting Kit-8; details: CCK-8, 24 hours incubation; read-out: CC50 HepG2 Cells
Experimental: as §1, §2, §3, §4, §5, §6

[1] = system: Methicillin-resistant S. epidermidis ATCC 51625; test: MIC, broth microdilution; details: Staphylococcus epidermidis, ATCC 51625 / MRSE, read-out: Minimum inhibitory concentration MRSE^e
Experimental: (§7) The minimum inhibitory concentration of 3H-imidazo[4,5-C]pyridine pleuromutilin onium salt derivatives against the tested pathogenic microorganisms were determined by broth microdilution method, with valnemulin and retapamulin as positive controls.
(§8) The experimental strains included resistant Gram-positive bacteria: Methicillin-resistant S. aureus ATCC 33591; Methicillin-resistant S. aureus ATCC 43300; S. aureus ATCC 29213; Methicillin-resistant S. epidermidis ATCC 51625. Resistant Gram-negative bacteria: A. baumannii ATCC 19606; S. enterica ATCC14028; E. coli ATCC 25922; E. coli CMCC 44103. 9 clinically isolated resistant strains: MRSA-171; MRSA-575; MRSA-206; MRSA-222; MRSA-596; VRE-80; MDR-PA-126; MDR-KP-893; CR-AB-882.
(§9) (1) Preparation of MHB medium: Weigh 18.0 g of MHB medium pre-made powder, add it to 1 L of distilled water, heat and boil until completely dissolved, divide it into conical bottles, sterilize it by high pressure at 121° C. for 15 minutes, and set aside.
(§10) (2) Cultivate the experimental strain to the logarithmic growth phase: Under sterile conditions, inoculate the experimental strain into fresh MHB medium and culture it in a 37° C. constant temperature and humidity incubator for 16-24 hours. Adjust the bacterial solution concentration to 1.5×10^8 CFU/mL and then dilute it 200 times for later use.
(§11) (3) Preparation of storage solution: Weigh the sample to be tested, dissolve it in 1% DMSO solution, and prepare a storage solution with a concentration of 2560 μg/mL; weigh the positive control, dissolve it in sterile distilled water, and prepare a storage solution with a concentration of 2560 μg/mL.
(§12) (4) Preparation of bacterial suspension: Under sterile conditions, the experimental strain cultured to the logarithmic growth phase was calibrated to a 0.5 McFarland unit turbidity standard using MHB medium and then diluted at a ratio of 1:200 to prepare a bacterial suspension with a concentration of 5×10^5 CFU/mL for later use.
(§13) (5) Determination of MIC by two-fold microdilution method: Take a sterile 96-well plate, add 10 μL of the test compound at a concentration of 2560 μg/mL, and perform serial dilutions by the two-fold dilution method. At the same time, set up a negative control group without drug. Then add 190 μL of diluted bacterial solution to each well, so that the final bacterial solution concentration in each well is 5×10^5 CFU/mL, and incubate in a 37° C. constant temperature and humidity chamber for 24 hours.

A. baumannii ATCC 19606 = test: MIC, broth microdilution; details: Acinetobacter baumannii
Experimental: as §7, §8, §9, §10, §11, §12, §13

E. coli ATCC 25922 = test: MIC, broth microdilution; details: Escherichia coli
Experimental: as §7, §8, §9, §10, §11, §12, §13

E.coli CMCC 44103 = test: MIC, broth microdilution; details: Escherichia coli
Experimental: as §7, §8, §9, §10, §11, §12, §13

[2] = system: Methicillin-resistant S. aureus ATCC 33591; test: MIC, broth microdilution; details: Staphylococcus aureus, ATCC 33591 / MRSA, read-out: Minimum inhibitory concentration MRSA^b
Experimental: as §7, §8, §9, §10, §11, §12, §13

[3] = system: Methicillin-resistant S. aureus ATCC 43300; test: MIC, broth microdilution; details: Staphylococcus aureus, ATCC 43300 / MRSA, read-out: Minimum inhibitory concentration MRSA^c
Experimental: as §7, §8, §9, §10, §11, §12, §13

S. aureus ATCC 29213 = test: MIC, broth microdilution; details: Staphylococcus aureus
Experimental: as §7, §8, §9, §10, §11, §12, §13

S. enterica ATCC14028 = test: MIC, broth microdilution; details: Salmonella enterica
Experimental: as §7, §8, §9, §10, §11, §12, §13

[4] = system: multidrug-resistant Klebsiella pneumoniae-893; test: MIC, clinical isolates; details: clinical isolate MDR-KP-893
Experimental: as §7, §8, §9, §10, §11, §12, §13

[5] = system: methicillin-resistant Staphylococcus aureus-575; test: MIC, clinical isolates; details: MRSA, read-out: Antibacterial activity (MIC) MRSA^c
Experimental: as §7, §8, §9, §10, §11, §12, §13

[6] = system: methicillin-resistant Staphylococcus aureus-596; test: MIC, clinical isolates; details: MRSA, read-out: Antibacterial activity (MIC) MRSA^f
Experimental: as §7, §8, §9, §10, §11, §12, §13

[7] = system: methicillin-resistant Staphylococcus aureus-222; test: MIC, clinical isolates; details: MRSA / MRSE, read-out: Antibacterial activity (MIC) MRSE^e
Experimental: as §7, §8, §9, §10, §11, §12, §13

[8] = system: carbapenem-resistant Acinetobacter baumannii-882; test: MIC, clinical isolates; details: read-out: Antibacterial activity (MIC) CR-AB^j
Experimental: as §7, §8, §9, §10, §11, §12, §13

[9] = system: multidrug-resistant Pseudomonas aeruginosa-126; test: MIC, clinical isolates; details: read-out: Antibacterial activity (MIC) MDR-PA^h
Experimental: as §7, §8, §9, §10, §11, §12, §13

[10] = system: vancomycin-resistant Enterococcus-80; test: MIC, clinical isolates; details: VRE, read-out: Antibacterial activity (MIC) VRE^g
Experimental: as §7, §8, §9, §10, §11, §12, §13

[11] = system: methicillin-resistant Staphylococcus aureus-171; test: MIC, clinical isolates; details: MRSA, read-out: Antibacterial activity (MIC) MRSA^b
Experimental: as §7, §8, §9, §10, §11, §12, §13

[12] = system: methicillin-resistant Staphylococcus aureus-206; test: MIC, clinical isolates; details: MRSA, read-out: Antibacterial activity (MIC) MRSA^d
Experimental: as §7, §8, §9, §10, §11, §12, §13

[13] = Methicillin-resistant S. epidermidis ATCC 51625
[14] = ATCC19606, A. baumannii ATCC 19606, read-out: Minimum inhibitory concentration A.b.^f
[15] = ATCC25922, E. coli ATCC 25922, read-out: Minimum inhibitory concentration E.c.^h
[16] = CMCC44103, E.coli CMCC 44103, read-out: Minimum inhibitory concentration E.c.^i
[17] = Methicillin-resistant S. aureus ATCC 33591
[18] = Methicillin-resistant S. aureus ATCC 43300
[19] = ATCC29213, S. aureus ATCC 29213, read-out: Minimum inhibitory concentration S.a.^d
[20] = S. enterica ATCC14028, read-out: Minimum inhibitory concentration S.e.^g

Row | Structure (SMILES) | MIC [1, 13] | MIC (A. baumannii ATCC 19606; [14]) | MIC (E. coli ATCC 25922; [15]) | MIC (E.coli CMCC 44103; [16]) | MIC [2, 17] | MIC [3, 18] | MIC (S. aureus ATCC 29213; [19]) | MIC (S. enterica ATCC14028; [20]) | also measured
1 | C=C[C@]1(C)C[C@@H](OC(=O)CSc2nc3cc[n+](Cc4ccc(C#N)cc4)cc3[nH]2)[C@]2(C)[C@H](C)CC[C@]3(CCC(=O)[C@H]32)[C@@H](C)[C@@H]1O [Compound h, 5-(4-cyanobenzyl)-2-((2-(((3aR,4R,5R,7S,8S,9R,9aS,12R)-8-hydroxy-4,7,9,12-tetramethyl-3-oxo-7-vinyldecahydro-4,9a-propancyclopenta[8]cyclo-5-yl)oxy)-2-oxoethyl)thio)-3H-imidazo[4,5-C]pyridine-5-ium] |  |  |  |  |  |  |  |  | CC50 (HEK293 Cells): > 100 µM; CC50 (A549 Cells): > 100 µM; CC50 (HepG2 Cells): 96.3 µM; MIC [1]: 0.25 µg/mL; MIC (A. baumannii ATCC 19606; ATCC19606, read-out: Minimum inhibitory concentration A.b.^f): 1 µg/mL; MIC (E. coli ATCC 25922; ATCC25922, read-out: Minimum inhibitory concentration E.c.^h): 0.5 µg/mL; MIC (E.coli CMCC 44103; CMCC44103, read-out: Minimum inhibitory concentration E.c.^i): 2 µg/mL; MIC [2]: 2 µg/mL; MIC [3]: 0.5 µg/mL; MIC (S. aureus ATCC 29213; ATCC29213, read-out: Minimum inhibitory concentration S.a.^d): 0.5 µg/mL; MIC (S. enterica ATCC14028; ATCC14028, read-out: Minimum inhibitory concentration S.e.^g): 2 µg/mL; Antibacterial activity (MIC) MDR-KP^i [4]: 16 µg/mL; MIC [5]: 32 µg/mL; MIC [6]: 8 µg/mL; MIC [7]: 16 µg/mL; MIC [8]: 64 µg/mL; MIC [9]: 32 µg/mL; MIC [10]: 2 µg/mL; MIC [11]: 16 µg/mL; MIC [12]: 4 µg/mL
2 | C=C[C@]1(C)C[C@@H](OC(=O)CSc2nc3cc[n+](Cc4cc(C)cc(C)c4)cc3[nH]2)[C@]2(C)[C@H](C)CC[C@]3(CCC(=O)[C@H]32)[C@@H](C)[C@@H]1O [Compound l, 5-(3,5-dimethylbenzyl)-2-((2-(((3aR,4R,5R,7S,8S,9R,9aS,12R)-8-hydroxy-4,7,9,12-tetramethyl-3-oxo-7-vinyldecahydro-4,9a-propancyclopenta[8]cyclo-5-yl)oxy)-2-oxoethyl)thio)-3H-imidazo[4,5-C]pyridine-5-ium] | 64 µg/mL | 64 µg/mL | 64 µg/mL | 64 µg/mL | 64 µg/mL | 32 µg/mL | 64 µg/mL | 32 µg/mL | 
3 | C=C[C@]1(C)C[C@@H](OC(=O)CSc2nc3cc[n+](Cc4cc(F)ccc4C#N)cc3[nH]2)[C@]2(C)[C@H](C)CC[C@]3(CCC(=O)[C@H]32)[C@@H](C)[C@@H]1O [Compound m, 5-(2-cyano-5-fluorobenzyl)-2-((2-(((3aR,4R,5R,7S,8S,9R,9aS,12R)-8-hydroxy-4,7,9,12-tetramethyl-3-oxo-7-vinyldecahydro-4,9a-propancyclopenta[8]cyclo-5-yl)oxy)-2-oxoethyl)thio)-3H-imidazo[4,5-C]pyridine-5-ium] | 64 µg/mL | 64 µg/mL | 64 µg/mL | 32 µg/mL | 64 µg/mL | 32 µg/mL | 32 µg/mL | 32 µg/mL | 
4 | C=C[C@]1(C)C[C@@H](OC(=O)CSc2nc3cc[n+](Cc4cc(OC)cc(OC)c4)cc3[nH]2)[C@]2(C)[C@H](C)CC[C@]3(CCC(=O)[C@H]32)[C@@H](C)[C@@H]1O [Compound n, 5-(3,5-dimethoxybenzyl)-2-((2-(((3aR,4R,5R,7S,8S,9R,9aS,12R)-8-hydroxy-4,7,9,12-tetramethyl-3-oxo-7-vinyldecahydro-4,9a-propancyclopenta[8]cyclo-5-yl)oxy)-2-oxoethyl)thio)-3H-imidazo[4,5-C]pyridine-5-ium] | 64 µg/mL | 64 µg/mL | 64 µg/mL | 32 µg/mL | 64 µg/mL | 32 µg/mL | 32 µg/mL | 128 µg/mL | 
